The IC50 is the concentration that gives 50% inhibition.

For this experiment, the target named is human PAD4 (hPAD4) (Homo sapiens, UniProt Q9UM07). In words: RFMS Human PAD4 Functional Assay. It counts as biochemical. As to conditions: hPAD4 RFMS IC50, human PAD4, rapid-fire mass spectrum (RFMS) assay; 5 nM hPAD4, 250 μM BAEE. The method, boiled down: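 RapidFire ESI-MS quantification, normalised to a modified-citrulline internal standard, after phenyl glyoxal (final 4 mM) derivatisation of the TCA-quenched reaction. The enzyme (10 nM) sat 30 min with compound (up to 50 μM final) before 500 μM BAEE (as added) started a 90 min, 37 °C reaction. Buffer: HEPES pH 7.5, 50 μM calcium, 5 μM TPEN.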
Chain of human PAD4 (hPAD4) (Q9UM07 whole entry): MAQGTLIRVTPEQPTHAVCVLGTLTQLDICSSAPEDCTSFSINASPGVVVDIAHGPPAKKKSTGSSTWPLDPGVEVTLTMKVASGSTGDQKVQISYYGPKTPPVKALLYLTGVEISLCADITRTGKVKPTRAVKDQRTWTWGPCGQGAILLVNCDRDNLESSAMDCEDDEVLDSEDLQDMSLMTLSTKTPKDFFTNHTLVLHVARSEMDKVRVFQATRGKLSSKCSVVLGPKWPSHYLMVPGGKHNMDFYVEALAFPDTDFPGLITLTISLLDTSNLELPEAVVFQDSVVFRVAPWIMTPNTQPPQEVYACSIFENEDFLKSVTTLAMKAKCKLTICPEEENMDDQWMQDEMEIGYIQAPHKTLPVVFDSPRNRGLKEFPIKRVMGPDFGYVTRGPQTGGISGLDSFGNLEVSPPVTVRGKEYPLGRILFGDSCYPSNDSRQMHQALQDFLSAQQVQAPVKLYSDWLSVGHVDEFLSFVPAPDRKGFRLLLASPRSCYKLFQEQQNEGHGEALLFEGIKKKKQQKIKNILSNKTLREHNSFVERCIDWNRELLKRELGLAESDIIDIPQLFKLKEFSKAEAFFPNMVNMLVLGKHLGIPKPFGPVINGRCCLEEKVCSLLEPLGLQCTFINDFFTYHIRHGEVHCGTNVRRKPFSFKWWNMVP
In the case of `CCOCC(=O)N1CCC(c2cccc3cc(-c4nc5cc(C(=O)N6C[C@H]7CC[C@@H]6[C@@H]7N)cc(OC)c5n4C)n(CC4CC4)c23)CC1` [Example 234, 1-(4-(2-(5-((1R,4R,7R)-7-amino-2-azabicyclo[2.2.1]heptane-2-carbonyl)-7-methoxy-1-methyl-1H-benzo[d]imidazol-2-yl)-1-(cyclopropylmethyl)-1H-indol-7-yl)piperidin-1-yl)-2-ethoxyethan-1-one], half-maximal inhibition (IC50) required 49 nM.

Compound `COc1cc(C(=O)N2C[C@H]3CC[C@@H]2[C@@H]3N)cc2nc(-c3cc4cccc(C5CCN(C(=O)COc6ccccc6)CC5)c4n3CC3CC3)n(C)c12` [Example 235, 1-(4-(2-(5-((1R,4R,7R)-7-amino-2-azabicyclo[2.2.1]heptane-2-carbonyl)-7-methoxy-1-methyl-1H-benzo[d]imidazol-2-yl)-1-(cyclopropylmethyl)-1H-indol-7-yl)piperidin-1-yl)-2-phenoxyethan-1-one] gave an IC50 of 58 nM. In the case of `COCCC(=O)N1CCC(c2cccc3cc(-c4nc5cc(C(=O)N6C[C@H]7CC[C@@H]6[C@@H]7N)cc(OC)c5n4C)n(CC4CC4)c23)CC1` [Example 236, 1-(4-(2-(5-((1R,4R,7R)-7-amino-2-azabicyclo[2.2.1]heptane-2-carbonyl)-7-methoxy-1-methyl-1H-benzo[d]imidazol-2-yl)-1-(cyclopropylmethyl)-1H-indol-7-yl)piperidin-1-yl)-3-methoxypropan-1-one], half-maximal inhibition (IC50) was put at 57 nM.

Regarding `COCCCC(=O)N1CCC(c2cccc3cc(-c4nc5cc(C(=O)N6C[C@H]7CC[C@@H]6[C@@H]7N)cc(OC)c5n4C)n(CC4CC4)c23)CC1` [Example 237, 1-(4-(2-(5-((1R,4R,7R)-7-amino-2-azabicyclo[2.2.1]heptane-2-carbonyl)-7-methoxy-1-methyl-1H-benzo[d]imidazol-2-yl)-1-(cyclopropylmethyl)-1H-indol-7-yl)piperidin-1-yl)-4-methoxybutan-1-one], 18 nM corresponded to half-maximal inhibition (IC50). For the compound `COc1cc(C(=O)N2C[C@H]3CC[C@@H]2[C@@H]3N)cc2nc(-c3cc4cccc(C5CCN(C(=O)C(C)OC)CC5)c4n3CC3CC3)n(C)c12` (stereo partly drawn) [Example 238, 1-(4-(2-(5-((1R,4R,7R)-7-amino-2-azabicyclo[2.2.1]heptane-2-carbonyl)-7-methoxy-1-methyl-1H-benzo[d]imidazol-2-yl)-1-(cyclopropylmethyl)-1H-indol-7-yl)piperidin-1-yl)-2-methoxypropan-1-one], the half-maximal inhibitory concentration (IC50) is 104 nM. The same measure for `COc1cc(C(=O)N2C[C@H]3CC[C@@H]2[C@@H]3N)cc2nc(-c3cc4cccc(C5CCN(C(=O)COC(C)C)CC5)c4n3CC3CC3)n(C)c12` [Example 239, 1-(4-(2-(5-((1R,4R,7R)-7-amino-2-azabicyclo[2.2.1]heptane-2-carbonyl)-7-methoxy-1-methyl-1H-benzo[d]imidazol-2-yl)-1-(cyclopropylmethyl)-1H-indol-7-yl)piperidin-1-yl)-2-isopropoxyethan-1-one]: 119 nM; for `COc1cc(C(=O)N2C[C@H]3CC[C@@H]2[C@@H]3N)cc2nc(-c3cc4cccc(C5CCN(C(=O)CO)CC5)c4n3CC3CC3)n(C)c12` [Example 240, 1-(4-(2-(5-((1R,4R,7R)-7-amino-2-azabicyclo[2.2.1]heptane-2-carbonyl)-7-methoxy-1-methyl-1H-benzo[d]imidazol-2-yl)-1-(cyclopropylmethyl)-1H-indol-7-yl)piperidin-1-yl)-2-hydroxyethan-1-one]: 15 nM; for `COc1cc(C(=O)N2C[C@H]3CC[C@@H]2[C@@H]3N)cc2nc(-c3cc4cccc(C5CCN(C(=O)Nc6ccc(F)cc6)CC5)c4n3CC3CC3)n(C)c12` [Example 241, 4-(2-(5-((1R,4R,7R)-7-amino-2-azabicyclo[2.2.1]heptane-2-carbonyl)-7-methoxy-1-methyl-1H-benzo[d]imidazol-2-yl)-1-(cyclopropylmethyl)-1H-indol-7-yl)-N-(4-fluorophenyl)piperidine-1-carboxamide]: 28 nM. With `COc1cc(C(=O)N2C[C@H]3CC[C@@H]2[C@@H]3N)cc2nc(-c3cc4cccc(C5CCN(C(=O)Nc6cccc(F)c6)CC5)c4n3CC3CC3)n(C)c12` [Example 242, 4-(2-(5-((1R,4R,7R)-7-amino-2-azabicyclo[2.2.1]heptane-2-carbonyl)-7-methoxy-1-methyl-1H-benzo[d]imidazol-2-yl)-1-(cyclopropylmethyl)-1H-indol-7-yl)-N-(3-fluorophenyl)piperidine-1-carboxamide], the 50% inhibitory concentration (IC50) worked out at 30 nM. The same measure for `COc1cc(C(=O)N2C[C@H]3CC[C@@H]2[C@@H]3N)cc2nc(-c3cc4cccc(C5CCN(C(=O)Nc6ccccc6F)CC5)c4n3CC3CC3)n(C)c12` [Example 243, 4-(2-(5-((1R,4R,7R)-7-amino-2-azabicyclo[2.2.1]heptane-2-carbonyl)-7-methoxy-1-methyl-1H-benzo[d]imidazol-2-yl)-1-(cyclopropylmethyl)-1H-indol-7-yl)-N-(2-fluorophenyl)piperidine-1-carboxamide]: 8 nM; for `COc1cc(C(=O)N2C[C@H]3CC[C@@H]2[C@@H]3N)cc2nc(-c3cc4cccc(C5CCN(C(=O)Nc6ccncc6)CC5)c4n3CC3CC3)n(C)c12` [Example 245, 4-(2-(5-((1R,4R,7R)-7-amino-2-azabicyclo[2.2.1]heptane-2-carbonyl)-7-methoxy-1-methyl-1H-benzo[d]imidazol-2-yl)-1-(cyclopropylmethyl)-1H-indol-7-yl)-N-(pyridin-4-yl)piperidine-1-carboxamide]: 13 nM; for `COc1ccc(NC(=O)N2CCC(c3cccc4cc(-c5nc6cc(C(=O)N7C[C@H]8CC[C@@H]7[C@@H]8N)cc(OC)c6n5C)n(CC5CC5)c34)CC2)cc1` [Example 246, 4-(2-(5-((1R,4R,7R)-7-amino-2-azabicyclo[2.2.1]heptane-2-carbonyl)-7-methoxy-1-methyl-1H-benzo[d]imidazol-2-yl)-1-(cyclopropylmethyl)-1H-indol-7-yl)-N-(4-methoxyphenyl)piperi-dine-1-carboxamide]: 6 nM. Under `COc1ccccc1NC(=O)N1CCC(c2cccc3cc(-c4nc5cc(C(=O)N6C[C@H]7CC[C@@H]6[C@@H]7N)cc(OC)c5n4C)n(CC4CC4)c23)CC1` [Example 247, 4-(2-(5-((1R,4R,7R)-7-amino-2-azabicyclo[2.2.1]heptane-2-carbonyl)-7-methoxy-1-methyl-1H-benzo[d]imidazol-2-yl)-1-(cyclopropylmethyl)-1H-indol-7-yl)-N-(2-methoxyphenyl)piperi-dine-1-carboxamide] stands 9 nM.

The compound `COc1cccc(NC(=O)N2CCC(c3cccc4cc(-c5nc6cc(C(=O)N7C[C@H]8CC[C@@H]7[C@@H]8N)cc(OC)c6n5C)n(CC5CC5)c34)CC2)c1` [Example 248, 4-(2-(5-((1R,4R,7R)-7-amino-2-azabicyclo[2.2.1]heptane-2-carbonyl)-7-methoxy-1-methyl-1H-benzo[d]imidazol-2-yl)-1-(cyclopropylmethyl)-1H-indol-7-yl)-N-(3-methoxyphenyl)piperi-dine-1-carboxamide] displayed an IC50 of 20 nM. `COc1cc(C(=O)N2C[C@H]3CC[C@@H]2[C@@H]3N)cc2nc(-c3cc4cccc(C5CCN(C(=O)NC6CC6)CC5)c4n3CC3CC3)n(C)c12` [Example 249, 4-(2-(5-((1R,4R,7R)-7-amino-2-azabicyclo[2.2.1]heptane-2-carbonyl)-7-methoxy-1-methyl-1H-benzo[d]imidazol-2-yl)-1-(cyclopropylmethyl)-1H-indol-7-yl)-N-cyclopropylpiperidine-1-carboxmaide] had a half-maximal inhibitory concentration (IC50) of 8 nM.

Values taken from patent publication US20220402950A1, “SUBSTITUTED BENZIMIDAZOLES AS PAD4 INHIBITORS” (BRISTOL-MYERS SQUIBB COMPANY, priority 2018, published 2022).
